Measurements reported in US9586959B2, “Substituted tricyclic heterocycles as histamine 4 receptor inhibitors” (C&C RESEARCH LABORATORIES, priority 2011, dated 2017).
pIC50: −log10 of the molar value.

How the values were obtained:
[1] = biological target: human histamine 4 receptor (hH4R) (Homo sapiens (Human), UniProt Q9H3N8); assay: Binding affinity of human histamine 4 receptor (hH4R), [3H] labeled histamine displacement; details: hH4R-overexpressed cell membrane, [3H] histamine
Summary of the method: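 Membranes of hH4R-overexpressing cells (25 μg) incubated with compound and [3H]histamine (diluted to 1 μM before addition) for 30 min at 27° C. Non-specific binding defined with histamine (100 μM before addition); bound radioligand collected by filtration on PEI-presoaked glass fibre, washed with 50 mM Tris-HCl pH 7.4, counted by scintillation (CPM).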

[2] = Mouse pharmacokinetics (oral); type: in vivo; details: plasma, 50 mg/kg, ICR mouse, 5 mg/mL solution at 10 mL/kg; for AUC(0-inf): read-out: Mouse pharmacokinetics AUCinf; for half-life: read-out: Mouse pharmacokinetics t1/2 (converted)
Method: The weight of each ICR mouse and SD rat was properly 20˜30 g and 200˜300 g, and dosage of the compound of the present invention was 10 mL/kg for mice and 5 mL/kg for rats, and administered orally using Zonde. Blood collection was performed at 0.25, 0.5, 1, 2, 4, 6, 8 and 24 hours by orbital venous blood collection using a capillary tube coated with an anticoagulant, and then plasma was isolated using a centrifuge and kept in a freezer.
Plasma collected from animals and standard concentration material were pretreated using solid-phase extraction, and concentration of the compound of the invention was determined using a liquid chromatography mass spectrometer (Agilent HPLC, API-3000).
According to the resulting concentration value, the pharmacokinetics parameter was found using WinNonlin (Version 6.2) and half-life (t1/2), maximum blood concentration (Cmax) and infinite area under the curve (AUCinf) are shown in Tables 6 and 7 below.

[3] = test system: histamine-induced itching, ICR mice; assay: Histamine-induced itching model in ICR mice; type: in vivo; details: 50 mg/kg oral, histamine 300 nmol intradermal, 20 min count
Method: (§1) Female, ICR mice (8 weeks old) were purchased from OrientBio Co., Ltd. The animals were housed under conditions of controlled temperature (23±3° C.), humidity (50±5%) and lighting with food and water available ad libitum.
(§2) The hair was clipped using clippers (8000AD, THRIVE) over the rostral part of the back 24 hours before the experiment under anesthesia with isoflurane. Histamine (300 nmol) was dissolved in saline and a volume of 40 μL injected intradermally into the rostral part of the back. Mice were dosed with either vehicle (20% cyclodextrin in second distilled water) or the compound by orally administration. The Compound (50 mg/kg) dissolved in a vehicle (20% cyclodextrin in second distilled water) and administered orally at a volume of 10 mL/kg.
(§3) Mice (n=10 per group) were divided into 3 groups (normal group, control group and experimental group). The animals were randomized for similar body weight distribution. A vehicle or the compound was administered 20 minutes before injection of histamine or saline. Immediately after intradermal injection, the animals were returned to an acrylic cage (approximately 30×30×30 cm, access production) composed of four cells, to which they had been acclimated for at least 1 hour before the experiment, for observation of itch responses. A camera (Samsung, VLUUNV30) was positioned above the mice to record their response. Itch was measured by blinded counting of the number of scratching in the 20 min period immediately after the intradermal injection. A number of scratching was defined as 3 or more individual rapid scratch movements with the hind paws around the injection site (J. Allergy Clin. Immunol. 2007, 19(1), 176-183). All data were analyzed by using Excel and Prism, and all values are expressed as the mean±S.E.M. The inhibitory effect of compounds is shown as a percentage of the maximal response to histamine (100% control group).
Statistical analysis was analyzed using one-way ANOVA with Dunnett test. Values of p<0.05 were considered statistically significant.

[4] = test system: substance P-induced itching, ICR mice; assay: Substance P-induced itching model in ICR mice; type: in vivo; details: 50 mg/kg oral, substance P 100 nmol intradermal, 20 min count
Method: as §1
as §2, with “Substance P (100” for “Histamine (300”
as §3, with “distribution. A Vehicle or the” for “distribution. A vehicle or the”, “injection of substance P or saline.” for “injection of histamine or saline.”, “site (J. Toxicol. Sci. 2009, 34(4), 427-431; J. Pharmacol. Sci. 2006, 100, 285-288). All data” for “site (J. Allergy Clin. Immunol. 2007, 19(1), 176-183). All data”, “control group). Statistical analysis was analyzed using one-way ANOVA with Dunnett test. Values of p<0.05 were considered statistically significant.” for “control group).”

[5] = Metabolic stability in mouse microsome; details: mouse microsome 1 mg/mL, 5 μM compound, 1 mM NADPH
[6] = Metabolic stability in human microsome; details: for Metabolic stability (CLh. int), Human: human microsome 1 mg/mL, 5 μM compound, 1 mM NADPH

human histamine 4 receptor (hH4R), sequence (Q9H3N8 whole entry): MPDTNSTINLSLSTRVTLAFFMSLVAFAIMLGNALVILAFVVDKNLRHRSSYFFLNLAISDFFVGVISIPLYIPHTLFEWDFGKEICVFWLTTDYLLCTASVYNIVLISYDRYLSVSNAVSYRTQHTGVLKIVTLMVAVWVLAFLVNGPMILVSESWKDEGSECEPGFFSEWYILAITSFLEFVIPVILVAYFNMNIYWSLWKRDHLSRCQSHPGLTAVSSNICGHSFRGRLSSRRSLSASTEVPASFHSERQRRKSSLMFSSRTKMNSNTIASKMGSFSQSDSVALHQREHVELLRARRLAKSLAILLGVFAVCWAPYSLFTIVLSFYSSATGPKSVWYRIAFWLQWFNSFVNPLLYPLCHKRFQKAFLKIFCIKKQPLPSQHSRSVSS

CN1CCN(c2nc3ncc(Cl)cc3n3cnnc23)CC1 [Compound 4, 8-Chloro-4-(4-methylpiperazin-1-yl)pyrido[2,3-e][1,2,4]triazolo[4,3-a]pyrazine] showed a pIC50 [1] of 7.40, a Cmax [2] of 14900 ng/mL and an AUC(0-inf) [2] of 35600 ng·h/mL. For the same molecule, the half-life [2] was 2.21 h, the “Number of scratching (% changes from control group)” value [3] was 94.3^1% and the “Number of scratching (% change from control group)” value [4] was 50.8%. The “Metabolic stability (CLh. int), Mouse” value [5] was 10220 µL/min/mg and the “Metabolic stability (CLh. int), Human” value [6] was 2200 µL/min/mg.
Molecule Clc1cnc2nc(N3CCNCC3)c3nncn3c2c1 [Compound 7, 8-Chloro-4-(piperazin-1-yl)pyrido[2,3-e][1,2,4]triazolo[4,3-a]pyrazine] has a pIC50 [1] of 6.88, a Cmax [2] of 6570 ng/mL and an AUC(0-inf) [2] of 16500 ng·h/mL. The half-life [2] was 1.28 h, the “Number of scratching (% changes from control group)” value [3] was 61.2^1% and the “Number of scratching (% change from control group)” value [4] was 60.5^1%. The “Metabolic stability (CLh. int), Mouse” value [5] was 6900 µL/min/mg and the “% remaining in 30 minutes” value ([6]; human microsome, 30 minutes) was “NC^y: Not calculable (99.8% remaining in 30 minutes)”.
Work on CNC1CN(c2nc3ncc(Cl)cc3n3cnnc23)C1 [Compound 18, 1-(8-Chloropyrido[2,3-e][1,2,4]triazolo[4,3-a]pyrazin-4-yl)-N-methylazetidin-3-amine] yielded a pIC50 [1] of 7.26, a Cmax [2] of 12300 ng/mL and an AUC(0-inf) [2] of 23700 ng·h/mL. For the same molecule, the half-life [2] was 1.32 h, the “Number of scratching (% changes from control group)” value [3] was 84.3^1% and the “Number of scratching (% change from control group)” value [4] was 42.6%. The “Metabolic stability (CLh. int), Mouse” value [5] was 1760 µL/min/mg and the “Metabolic stability (CLh. int), Human” value [6] was 4200 µL/min/mg.
CNC1CN(c2nc3ncc(Br)cc3n3cnnc23)C1 [Compound 24, 1-(8-Bromopyrido[2,3-e][1,2,4]triazolo[4,3-a]pyrazin-4-yl)-N-methylazetidin-3-amine] gave a pIC50 [1] of 7.44, a Cmax [2] of 18900 ng/mL and an AUC(0-inf) [2] of 32200 ng·h/mL. For the same molecule, the half-life [2] was 0.96 h, the “Number of scratching (% changes from control group)” value [3] was 93.6^1% and the “Number of scratching (% change from control group)” value [4] was 74.5^1%. For the same molecule, the “Metabolic stability (CLh. int), Mouse” value [5] was 3050 µL/min/mg and the “Metabolic stability (CLh. int), Human” value [6] was 1330 µL/min/mg.
For CNC1CN(c2nc3ncc(I)cc3n3cnnc23)C1 [Compound 48, 1-(8-Iodopyrido[2,3-e][1,2,4]triazolo[4,3-a]pyrazin-4-yl)-N-methylazetidin-3-amine], the pIC50 [1] was 7.19, the Cmax [2] was 10200 ng/mL and the AUC(0-inf) [2] was 21600 ng·h/mL. For the same molecule, the half-life [2] was 1.46 h, the “Number of scratching (% changes from control group)” value [3] was 67.3^1% and the “Number of scratching (% change from control group)” value [4] was 33.5%. For the same molecule, the “Metabolic stability (CLh. int), Mouse” value [5] was 5310 µL/min/mg and the “Metabolic stability (CLh. int), Human” value [6] was 400 µL/min/mg.
CNC1CN(c2nc3ncc(Br)cc3n3nnnc23)C1 [Compound 95, 1-(8-Bromopyrido[2,3-e]tetrazolo[1,5-a]pyrazin-4-yl)-N-methylazetidin-3-amine] gave a pIC50 [1] of 7.36, a Cmax [2] of 15400 ng/mL and an AUC(0-inf) [2] of 98300 ng·h/mL. The half-life [2] was 4.03 h, the “Number of scratching (% changes from control group)” value [3] was 98.2^1% and the “Number of scratching (% change from control group)” value [4] was 80.7^1%. The “Metabolic stability (CLh. int), Mouse” value [5] was 18100 µL/min/mg and the “Metabolic stability (CLh. int), Human” value [6] was 5500 µL/min/mg.
